A short description of experiment [1]: Laying hen study: long chain fatty acid composition of eggs. Conditions: for ALA (C18:3n-3) / DHA (C22:6n-3) / DPA (C22:5 n-3) / EPA (C20:5n-3) / Omega 6/Omega 3 ratio / SDA (C18:4n-3) / Total omega 3's: total egg. In kind it is in vivo, laying hens. How it is done:
A study was conducted to determine whether laying hens fed a diet enriched in stearidonic acid could produce eggs with elevated levels of beneficial omega-3 fatty acids including EPA and DHA. Mature laying hens […] were randomly allotted to seven dietary treatments (16 hens/treatment) and were fed diets containing the following levels of n-3 fatty acids as described in Table 28 for four weeks. Sixteen birds were given each treatment. Four birds were randomly selected out of the 16 per treatment to obtain eggs during week 4 for fatty acid composition. […] The laying hens had ad libitum access to feed and water. The composition of the diets (Table 29) and premixes (Table 30) are provided below. To help prevent oxidation of the fatty acids, 0.05% ethoxyquin (Rendox) was added to each premix. Premixes were manufactured within 3 days of arrival of ethyl esters. To limit the oxidation associated with storage, diets were manufactured once and stored in a refrigerated cooler at 4° C. during the duration of the study. Eggs collected during […] (days 22-28) were maintained under refrigerated conditions until all eggs for that week were collected. Eggs were sorted by hen and treatment. Two eggs per hen from 4 hens per treatment were taken. The two eggs were weighed individually, cracked and the shell weighed. The difference between fresh egg and shell represented liquid egg weight and served as the basis for further calculations. The liquid fraction from each of the two eggs per hen were combined in a sample cup and homogenized. Samples were analyzed for fatty acids by gas chromatography.

The nature of experiment [2]: 21 day broiler study: long chain fatty acid composition of thigh meat. It counts as in vivo, broiler chickens. Conditions: boneless skinless thigh meat, day 21-42. The procedure:
(§1) A 21 day study was conducted to determine whether broiler chickens fed a diet containing SDA could produce meat with elevated levels of omega-3 fatty acids including EPA and DHA.
(§2) Fifty pens of four birds per pen were used. There were 25 pens of males and 25 pens of females. Five pens of males and five pens of females were each fed one of five treatment diets from day 21 to 42 days of age. Prior to day 21 all birds were fed a standard 22% protein starter diet formulated to meet NRC (1994) nutrient requirements (shown in Table 16 as “S” diet). The feed prepared was feed as a crumble.
(§3) The test diets were prepared and fed in mash form. All broilers had ad libitum access to feed and water for the duration of the 21 day study. The composition of the diets (Table 4) and premixes (Table 5) are provided below.
(§4) To help prevent oxidation of the fatty acids, 0.05% ethoxyquin (Rendox) was added to each premix. Premixes were manufactured within 3 days of arrival of ethyl esters. To limit oxidation associated with storage, diets were manufactured once and stored in a refrigerated cooler at 4° C. during the duration of the study.
(§5) For male pens only, four out of the five pens were randomly selected. Two birds from each of these pens were randomly selected (eights birds per treatment). The right and left thigh and right and left breast from these 40 birds were bagged and labeled and frozen. The right breast and thigh samples were analyzed for shelf life stability and the left skinless breast and left boneless, skinless thigh from these same birds were analyzed for fatty acid composition.

A short description of experiment [3]: 21 day broiler study: long chain fatty acid composition of skinless breast meat. Conditions: day 21-42. It counts as in vivo, broiler chickens. The procedure:
as §1, §2, §3, §4, §5

SMILES strings stand for the structures.

Consider `CC/C=C\C/C=C\C/C=C\CCCCCCCC(=O)OCC` [ALA, alpha-Linolenic Acid - Ethyl Esters], for which the “accumulation of SDA or DPA in eggs” value in experiment [1] (dietary enrichment of laying hens) was “no significant accumulation”.
On to `CC/C=C\C/C=C\C/C=C\C/C=C\CCCCC(=O)OCC` [SDA Ethyl Ester], for which, in experiment [2] (ethyl ester 0.416% of diet), the “ALA (C18:3n-3)” value is listed as 82.5 mg/100 g, the “DHA (C22:6n-3)” value was 20 mg/100 g, the “DPA (C22:5 n-3)” value turned out to be 37.5 mg/100 g and the “EPA (C20:5n-3)” value was determined as 30 mg/100 g. In experiment [2] (ethyl ester 0.416% of diet), the “Omega 6/Omega 3 ratio” value was 4.4, the “SDA (C18:4n-3)” value came out at 187.5 mg/100 g and the “Total omega 3's” value is 362.5 mg/100 g. For the same compound, in experiment [2] (ethyl ester 0.832% of diet), the “ALA (C18:3n-3)” value was 86.7 mg/100 g, the “DHA (C22:6n-3)” value turned out to be 20 mg/100 g, the “DPA (C22:5 n-3)” value is 50 mg/100 g and the “EPA (C20:5n-3)” value turned out to be 50 mg/100 g. Further, in experiment [2] (ethyl ester 0.832% of diet), the “Omega 6/Omega 3 ratio” value was determined as 2.7, the “SDA (C18:4n-3)” value came to 386.7 mg/100 g and the “Total omega 3's” value is 593.3 mg/100 g. For the same compound, in experiment [1] (0.416% of diet), the “ALA (C18:3n-3)” value came out at 42.5 mg/100 g, the “DHA (C22:6n-3)” value is reported as 150 mg/100 g, the “DPA (C22:5 n-3)” value was determined as 35 mg/100 g and the “EPA (C20:5n-3)” value was 10 mg/100 g. For the same compound, in experiment [1] (0.416% of diet), the “Omega 6/Omega 3 ratio” value was determined as 5.0, the “SDA (C18:4n-3)” value is 10 mg/100 g and the “Total omega 3's” value stood at 247.5 mg/100 g. Also, in experiment [1] (0.832% of diet), the “ALA (C18:3n-3)” value was determined as 55 mg/100 g, the “DHA (C22:6n-3)” value worked out at 182.5 mg/100 g, the “DPA (C22:5 n-3)” value is 60 mg/100 g and the “EPA (C20:5n-3)” value is 22.5 mg/100 g. In experiment [1] (0.832% of diet), the “Omega 6/Omega 3 ratio” value is 3.7, the “SDA (C18:4n-3)” value turned out to be 25 mg/100 g and the “Total omega 3's” value was 360 mg/100 g. Moreover, in experiment [3] (ethyl ester 0.416% of diet), the “ALA (C18:3n-3)” value was found to be 10 mg/100 g, the “DHA (C22:6n-3)” value amounted to 10 mg/100 g, the “DPA (C22:5 n-3)” value came out at 22.5 mg/100 g and the “EPA (C20:5n-3)” value was 20 mg/100 g. In experiment [3] (ethyl ester 0.416% of diet), the “Omega 6/Omega 3 ratio” value was 2.9, the “SDA (C18:4n-3)” value stood at 22.5 mg/100 g and the “Total omega 3's” value is 85 mg/100 g. For the same compound, in experiment [3] (ethyl ester 0.832% of diet), the “ALA (C18:3n-3)” value was 10 mg/100 g, the “DHA (C22:6n-3)” value was 10 mg/100 g, the “DPA (C22:5 n-3)” value stood at 30 mg/100 g and the “EPA (C20:5n-3)” value was 27.5 mg/100 g. For the same compound, in experiment [3] (ethyl ester 0.832% of diet), the “Omega 6/Omega 3 ratio” value is 2.0, the “SDA (C18:4n-3)” value amounted to 40 mg/100 g and the “Total omega 3's” value amounted to 117.5 mg/100 g.

For the origin of these results see US8323708B2, “Poultry meat and eggs comprising beneficial fatty acids” (Monsanto Technology LLC, priority 2009, dated 2012).
